Experimental data taken from paper PMC11952846, “The sterol-regulating human ARV1 binds cholesterol and phospholipids through its conserved ARV1 homology domain” (The Journal of Biological Chemistry, 2025).
Where a chain is given by its changes, count along the chain named.

Columns and labels:
6XHIS-N98 E70A = biological target: T1, 6XHIS-N98 E70A (Homo sapiens, UniProt Q9H2C2, E70A); experiment: HTRF phospholipid lipid-binding assay, mutant; parameters: key to Bio-PL, EC50, M ± S.D.: NC, no change; settings: biotinylated lipid, NC = no change vs N98
T1 construct: made in house; host or cells: E. coli BL21
T1 sequence (Q9H2C2 1-98 E70A): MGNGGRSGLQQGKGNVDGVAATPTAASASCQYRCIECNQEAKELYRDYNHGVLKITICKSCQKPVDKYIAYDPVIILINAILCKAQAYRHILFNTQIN
Excerpt: (§1) An HTRF assay was developed for 6XHIS-ARV1-N98-lipid binding. HTRF measures analyte interactions through fluorescence resonance energy transfer technology and time-resolved measurements ([53]). The interaction between two molecules can be quantified through binding each individual molecule involved with a fluorescent label and then analyzing the transfer of energy between the initial donor fluorophore and the secondary acceptor fluorophore. Following excitation of the first fluorophore, transfer of energy can only occur if the molecules bound with the fluorescent tags are within proximity to each other.
(§2) Assays were plated in 384-well flat bottom microplates (Greiner Bio, catalog #784075-25). Proteins were diluted using binding buffer (20 mM Hepes buffer, pH 7.2, containing 0.1% BSA, and 0.01% Tween20) to a stock concentration of 0.75 μM, and biotinylated phospholipids were dispensed, dried under nitrogen gas, and resuspended in binding buffer to a stock concentration of 50 μM. The lipid stock solution was diluted by 1:2 for a series of 12 serial dilutions. For the assay, in sequential order, 6 μl of binding buffer was loaded into the plate in triplicate for each dilution of phospholipid. To this, 2 μl of 0.75 μM 6XHIS-ARV1-N98 was added, followed by 2 μl of biotinylated phospholipid. Immediately following each addition loaded into the plate, the plate was centrifuged for 1 min at 1000 rpm to bring the contents to the bottom of the well. Next, detection antibodies were mixed with detection buffer (20 mM Hepes buffer, pH 8.5, containing 0.01% BSA and 200 mM KF). Antibodies were a MAb anti-6XHIS Europium kryptate-conjugated D1 fluorescent antibody (Cisbio, #61HISKLA) and Streptavidin-conjugated d2 fluorescent antibody (Cisbio, #610SADLA). For each 1000 μl of detection buffer, 5 μl of each antibody was added just prior to loading 10 μl into each well. The plate was again centrifuged for 1 min at 1000 rpm and stored in a sealed container overnight, in the dark. Plates were read on a PerkinElmer EnVision Xcite Multilabel plate reader.
(§3) Curves were logarithmically transformed and normalized to a common scale before being fit with a nonlinear regression of the agonist against the normalized response. This generated half maximal effective concentration values (EC50; M) that could then be compared between different lipids. In the context of our study, EC50 values were defined as a measure of protein sensitivity to binding to a particular lipid within a dose response curve. For phospholipid competition analysis, IC50; M values were determined using nonlinear regression of the inhibitor against normalized response.

[1] = biological target: T2, GST-ARV1 (full-length ARV1) (Homo sapiens, UniProt Q9H2C2); experiment: Protein-lipid liposome binding assay (ultracentrifugation, Western blot); settings: protein detected in final pellet
T2 construct: Expresses full length ARV1; made in house; host or cells: E. coli BL21 (pGEX-4T1)
T2 sequence (Q9H2C2 1-271): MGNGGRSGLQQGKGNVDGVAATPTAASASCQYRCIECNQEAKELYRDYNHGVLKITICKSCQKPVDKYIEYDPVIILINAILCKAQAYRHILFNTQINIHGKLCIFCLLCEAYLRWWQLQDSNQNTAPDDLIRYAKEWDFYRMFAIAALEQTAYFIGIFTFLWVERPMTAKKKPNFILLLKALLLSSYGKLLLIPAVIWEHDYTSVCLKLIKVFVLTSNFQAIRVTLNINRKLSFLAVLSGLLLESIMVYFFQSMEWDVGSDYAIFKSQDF
Description: Lyophilized lipids were reconstituted in chloroform at 10 mg/ml and stored in glass tubes with Teflon tops at −20 °C until use. One milliliter of 10 mg/ml stock was dried under a stream of nitrogen in a glass tube until a lipid cake/film was formed. The lipid cake was then rehydrated in BLT rehydration buffer (5 mM Tris/HCl, pH 7.4, containing 150 mM NaCl) to a concentration of 1 mg/ml. Lipid suspensions were subjected to three freeze/thaw cycles using a dry ice ethanol/[…] water bath to encapsulate the buffer and improve liposome formation. The suspension and lipid extruder were equilibrated to temperature for 10 min and liposomes were extruded using […] polycarbonate membranes (Avestin). Liposomes were made by mixing stock lipid PL (1 mg/ml) with PC (10 mg/ml).
Cholesterol composition liposomes were rehydrated with cholesterol rehydration buffer (10 mM Hepes, pH 7.4, containing 150 mM KCl).
Liposomes were serial diluted in floatation buffer (100 mM NaCl, 2 mM EDTA, pH 5.5) to a final concentration of 0.1 mg/ml. Nine hundred microliters of liposome solution was placed in clear ultracentrifuge tubes and mixed with 100 μl of 0.01 μg/ml of protein. The liposome/protein solution was incubated at room temperature for 1 h with occasional shaking. An initial 100 μl of liposome/protein solution (liposomes) was removed and the remaining 900 μl was centrifuged at 50,000g for 20 min at 4 °C. The pellet was resuspended in 800 μl of fresh floatation buffer, centrifuged as above, and 800 μl of supernatant was removed (wash 1). This was repeated a second time and again 800 μl of supernatant was removed (wash 2). The final pellet was resuspended in 100 μl of floatation buffer plus SDS treatment buffer (pellet). Thirty microliters of each fraction was run on a 15% SDS-PAGE gel and probed with an anti-GST monoclonal antibody at a 1:1500 dilution.

6XHIS-N98 C58/61A = biological target: T3, 6XHIS-N98 C58/61A (Homo sapiens, UniProt Q9H2C2, C58A/C61A); experiment: HTRF phospholipid lipid-binding assay, mutant; parameters: key: NC, no change; settings: biotinylated lipid; NC = no change vs N98
T3 construct: made in house; host or cells: E. coli BL21
T3 sequence (Q9H2C2 1-98 C58A/C61A): T1 sequence (Q9H2C2 1-98 E70A) with C58A, C61A, A70E
Excerpt: as §1, §2, §3

6XHIS-N98 C34/37A = biological target: T4, 6XHIS-N98 C34/37A (Homo sapiens, UniProt Q9H2C2, C34A/C37A); experiment: HTRF phospholipid lipid-binding assay, mutant; parameters: key: NC, no change; settings: biotinylated lipid; NC = no change vs N98
T4 construct: made in house; host or cells: E. coli BL21
T4 sequence (Q9H2C2 1-98 C34A/C37A): T1 sequence (Q9H2C2 1-98 E70A) with C34A, C37A, A70E
Excerpt: as §1, §2, §3

6XHIS-N98 K54/K59A = biological target: T5, 6XHIS-N98 K54/K59A (Homo sapiens, UniProt Q9H2C2, K54A/K59A); experiment: HTRF phospholipid lipid-binding assay, mutant; parameters: key: NC, no change; settings: biotinylated lipid; NC = no change vs N98
T5 construct: made in house; host or cells: E. coli BL21
T5 sequence (Q9H2C2 1-98 K54A/K59A): T1 sequence (Q9H2C2 1-98 E70A) with K54A, K59A, A70E
Excerpt: as §1, §2, §3

6XHIS-N98 D72A = biological target: T6, 6XHIS-N98 D72A (Homo sapiens, UniProt Q9H2C2, D72A); experiment: HTRF phospholipid lipid-binding assay, mutant; parameters: key: NC, no change; settings: biotinylated lipid; NC = no change vs N98
T6 construct: made in house; host or cells: E. coli BL21
T6 sequence (Q9H2C2 1-98 D72A): T1 sequence (Q9H2C2 1-98 E70A) with A70E, D72A
Excerpt: as §1, §2, §3

| binding to PC:PL liposomes [1] | Bio-PL, EC50, M ± S.D. (6XHIS-N98 C58/61A) | Bio-PL, EC50, M ± S.D. (6XHIS-N98 C34/37A) | Bio-PL, EC50, M ± S.D. (6XHIS-N98 K54/K59A) | Bio-PL, EC50, M ± S.D. (6XHIS-N98 D72A) | EC50 (6XHIS-N98 E70A; read-out: Bio-PL, EC50, M ± S.D.) [µM] | Molecule | Bio-PL, EC50, M ± S.D. (6XHIS-N98 E70A) |
| --- | --- | --- | --- | --- | --- | --- | --- |
| bound | NC | NC | NC | NC |  | CCCCC/C=C\C/C=C\CCCCCCCC(=O)OC[C@H](COP(=O)(O)OCC(O)COP(=O)(O)OC[C@@H](COC(=O)CCCCCCC/C=C\C/C=C\CCCCC)OC(=O)CCCCCCC/C=C\C/C=C\CCCCC)OC(=O)CCCCCCC/C=C\C/C=C\CCCCC (stereo partly drawn) [CL, cardiolipin] | NC |
| bound | reduced binding | increased | reduced binding | reduced binding |  | CCCCCCCCCCCCCCCC(=O)OC[C@H](COP(=O)(O)O)OC(=O)CCCCCCCCCCCCCCC [PA, phosphatidic acid] | reduced binding |
| very weakly | NC | NC | NC | NC |  | phosphatidylcholine [PC] | NC |
| Neither | NC | NC | NC | NC | 0.19 | phosphatidylethanolamine [PE] |  |

| Molecule | binding to PC:PL liposomes [1] | Bio-PL, EC50, M ± S.D. (6XHIS-N98 C58/61A) | Bio-PL, EC50, M ± S.D. (6XHIS-N98 C34/37A) | Bio-PL, EC50, M ± S.D. (6XHIS-N98 K54/K59A) | Bio-PL, EC50, M ± S.D. (6XHIS-N98 D72A) | EC50 (6XHIS-N98 E70A; read-out: Bio-PL, EC50, M ± S.D.) [µM] | Bio-PL, EC50, M ± S.D. (6XHIS-N98 E70A) |
| --- | --- | --- | --- | --- | --- | --- | --- |
| CCCCCCCC/C=C\CCCCCCCC(=O)OC[C@H](COP(=O)(O)OCC(O)CO)OC(=O)CCCCCCC/C=C\CCCCCCCC (stereo partly drawn) [PG, phosphatidylglycerol] | bound | NC | reduced | reduced | NC |  | NC |
| CCCCCCCCCCCCCCCCCC(=O)OC[C@H](COP(=O)(O)OC[C@H](N)C(=O)O)OC(=O)CCCCCCCCCCCCCCCCC [PS, phosphatidylserine] | bound | NC | NC | NC | NC |  | NC |
| CCCCCC(=O)O[C@H](COC(=O)CCCCCNC(=O)CCCC[C@@H]1SC[C@@H]2NC(=O)N[C@@H]21)COP(=O)(O)O[C@H]1[C@H](O)[C@@H](O)[C@H](OP(=O)(O)O)[C@@H](O)[C@H]1O [reference compound] |  | weakened |  |  | weakened |  | weakened |
